Test results published in ChEMBL document CHEMBL5233241, “A medicinal chemistry perspective of drug repositioning: Recent advances and challenges in drug discovery” (Eur J Med Chem, 2020).
Structures can show the parent of a compound that is named as a salt.

Columns and labels:
[1] = tested on: Middle East respiratory syndrome-related coronavirus; experiment: Antiviral activity against MERS-CoV/KOR/KNIH/002_05_2015 infected in human Huh-7 cells assessed as reduction in virus-induced cytopathic effect incubated for 3 days by CellTiter 96 aqueous one solution cell proliferation assay; type: functional, organism-based; conditions: KOR/KNIH/002_05_2015, Huh-7, 72 h
Tyrosinase = target: T1, Tyrosinase (Agaricus bisporus, UniProt O42713); experiment: Inhibition of mushroom tyrosinase
T1 sequence (O42713 whole entry): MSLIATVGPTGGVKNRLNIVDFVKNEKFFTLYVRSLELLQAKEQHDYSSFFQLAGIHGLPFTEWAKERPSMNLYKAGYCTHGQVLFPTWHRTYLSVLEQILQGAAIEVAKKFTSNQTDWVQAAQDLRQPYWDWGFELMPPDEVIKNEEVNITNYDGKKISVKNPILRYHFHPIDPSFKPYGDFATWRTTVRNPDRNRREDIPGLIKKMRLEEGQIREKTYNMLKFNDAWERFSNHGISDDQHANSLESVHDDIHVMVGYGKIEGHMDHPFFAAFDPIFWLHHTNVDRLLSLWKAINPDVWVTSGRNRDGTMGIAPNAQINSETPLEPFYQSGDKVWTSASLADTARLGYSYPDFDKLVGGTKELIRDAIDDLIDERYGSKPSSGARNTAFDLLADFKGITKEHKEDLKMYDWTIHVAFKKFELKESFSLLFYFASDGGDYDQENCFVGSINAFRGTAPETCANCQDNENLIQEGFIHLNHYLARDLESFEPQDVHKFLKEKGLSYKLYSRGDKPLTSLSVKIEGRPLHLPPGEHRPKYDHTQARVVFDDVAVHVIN

[2] = Cytotoxicity against human Huh-7 cells; type: toxicity, cell-based
[3] = tested on: Middle East respiratory syndrome-related coronavirus; experiment: Antiviral activity against MERS-CoV isolate EMC/2012 infected in human Huh-7 cells assessed as reduction in virus-induced cytopathic effect incubated for 2 days by MTS assay; type: functional, organism-based; conditions: EMC/2012, Huh-7, 48 h
[4] = Cytotoxicity against human COV318 cells incubated for 120 hrs by SRB assay; type: functional, cell-based; conditions: COV318, 120 h
[5] = Cytotoxicity against human COV362 cells incubated for 120 hrs by SRB assay; type: functional, cell-based; conditions: COV362, 120 h
OVCAR-3 = experiment: Cytotoxicity against human OVCAR-3 cells incubated for 72 hrs by SRB assay; type: functional, cell-based; conditions: OVCAR-3, 72 h
OVCAR-4 = experiment: Cytotoxicity against human OVCAR-4 cells incubated for 72 hrs by SRB assay; type: functional, cell-based; conditions: OVCAR-4, 72 h
[6] = Cytotoxicity against human OVSAHO cells incubated for 72 hrs by SRB assay; type: functional, cell-based
SARS-CoV [7] = experiment: Antiviral activity against SARS-CoV; type: functional, organism-based; conditions: Severe acute respiratory syndrome-related coronavirus
Human coronavirus 229E [8] = experiment: Antiviral activity against hCoV-229E; type: functional, organism-based
Plasmodium = experiment: Antimalarial activity against Plasmodium; type: functional, organism-based
[9] = Inhibition of Wnt signalling in HEK293T cells; type: cell-based; conditions: Homo sapiens, HEK-293T
[10] = Inhibition of Wnt signalling in human BT-20 cells; type: cell-based
[11] = Inhibition of melanin production in mouse B16 cells assessed as reduction in melanin content at up to 20 uM relative to control; type: functional
Mus musculus [12] = experiment: Anti-alzheimer activity against APP/PSEN1 transgenic mouse model assessed as fold reduction in amyloid beta plaques at 10 mg/kg administered intranasally every other day for 2 months; type: functional; conditions: route nas, 1460 h
Dengue virus = experiment: Antiviral activity against DENV assessed as inhibition of viral replication relative to control; type: functional
SARS-CoV [13] = experiment: Antiviral activity against SARS-CoV isolate Frankfurt-1 infected in Vero E6 cells assessed as reduction in virus-induced cytopathic effect incubated for 3 days by MTS assay; type: functional, organism-based; conditions: Severe acute respiratory syndrome-related coronavirus, Frankfurt-1, Vero C1008, 72 h
Human coronavirus 229E [14] = experiment: Antiviral activity against hCoV-229E expressing GFP infected in human Huh-7 cells assessed as reduction in virus-induced cytopathic effect incubated for 24 hrs by MTS assay; type: functional, organism-based; conditions: Huh-7, 24 h
B16-F10 = experiment: Inhibition of melanin production in mouse B16-F10 cells assessed as reduction in melanin content at 50 uM relative to control; type: functional
Mus musculus [15] = experiment: Anti-alzheimer activity against young APP/PS1 mouse model assessed as reduction in amyloid beta (1 to 40 residues) level at 100 mg/kg, po administered daily and measured for 14 days; type: functional; set-up: scale not given: the % may be the effect or the level left; conditions: time 14 day
Mus musculus [16] = experiment: Anti-alzheimer activity against old APP/PS1 mouse model assessed as reduction in amyloid beta (1 to 40 residues) level at 100 mg/kg, po administered daily and measured for 14 days; type: functional; set-up: scale not given: the % may be the effect or the level left; conditions: time 14 day
Mus musculus [17] = experiment: Anti-alzheimer activity against young APP/PS1 mouse model assessed as reduction in amyloid beta (1 to 42 residues) level at 100 mg/kg, po administered daily and measured for 14 days; type: functional; set-up: scale not given: the % may be the effect or the level left; conditions: time 14 day
Mus musculus [18] = experiment: Anti-alzheimer activity against old APP/PS1 mouse model assessed as reduction in amyloid beta (1 to 42 residues) level at 100 mg/kg, po administered daily and measured for 14 days; type: functional; set-up: scale not given: the % may be the effect or the level left; conditions: time 14 day
Mus musculus [19] = experiment: Anti-alzheimer activity against APP/PS1 mouse model assessed as reduction in insoluble amyloid beta level at 100 mg/kg, po administered daily and measured for 90 days; type: functional; set-up: scale not given: the % may be the effect or the level left; conditions: time 90 day
Plasmodium falciparum = experiment: Antimalarial activity against Plasmodium falciparum W2; type: functional, organism-based

## CCN(CC)Cc1cc(Nc2ccnc3cc(Cl)ccc23)ccc1O
[1]
  EC50: 2.1 µM

## Cn1cc[nH]c1=S [METHIMAZOLE]
Tyrosinase
  IC50: 114 µM

## CN1CCN(c2nc(C3=C(c4c[nH]c5ccccc45)C(=O)NC3=O)c3ccccc3n2)CC1 [SOTRASTAURIN]
[1]
  EC50: 9.7 µM
[2]
  CC50: > 50 µM

## Cc1cccc(C)c1OCC(=O)N[C@@H](Cc1ccccc1)[C@@H](O)C[C@H](Cc1ccccc1)NC(=O)[C@H](C(C)C)N1CCCNC1=O [LOPINAVIR]
[3]
  EC50: 8 µM

## C[C@]12C=CC(=O)C=C1CC[C@@H]1[C@@H]2[C@@H](O)C[C@@]2(C)[C@H]1CC[C@]2(O)C(=O)CO [PREDNISOLONE]
[4]
  IC50: 1.1 µM
[5]
  IC50: 1.1 µM
OVCAR-3
  IC50: 1.1 µM
OVCAR-4
  IC50: 1.1 µM
[6]
  IC50: 1.1 µM

## CN1CCN(CCOc2cc(OC3CCOCC3)c3c(Nc4c(Cl)ccc5c4OCO5)ncnc3c2)CC1 [SARACATINIB]
[2]
  CC50: > 50 µM
SARS-CoV [7]
  EC50: 2.4 µM
Human coronavirus 229E [8]
  EC50: 5.1 µM

## C/C=C/C[C@@H](C)[C@@H](O)[C@H]1C(=O)N[C@@H](CC)C(=O)N(C)CC(=O)N(C)[C@@H](CC(C)C)C(=O)N[C@@H](C(C)C)C(=O)N(C)[C@@H](CC(C)C)C(=O)N[C@@H](C)C(=O)N[C@H](C)C(=O)N(C)[C@@H](CC(C)C)C(=O)N(C)[C@@H](CC(C)C)C(=O)N(C)[C@@H](C(C)C)C(=O)N1C [CYCLOSPORINE]
Plasmodium
  IC50: 1.7 µM

## Cn1cnc([N+](=O)[O-])c1Sc1ncnc2nc[nH]c12 [AZATHIOPRINE]
Tyrosinase
  Ki: > 1000 µM

## COc1ccc2c(c1)N(C[C@H](C)CN(C)C)c1ccccc1S2 [LEVOMEPROMAZINE]
[1]
  EC50: 2.5 µM
[2]
  CC50: 24.5 µM

## CC(C)/N=c1\cc2n(-c3ccc(Cl)cc3)c3ccccc3nc-2cc1Nc1ccc(Cl)cc1 [CLOFAZIMINE]
[9]
  IC50: 6 µM
[10]
  IC50: 7 µM

## CC(=O)Nc1ccc(/C=N/NC(N)=S)cc1 [AMITHIOZONE]
Tyrosinase
  IC50: 14 µM

## CCCc1cc(=O)[nH]c(=S)[nH]1 [PROPYLTHIOURACIL]
Tyrosinase
  IC50: 170 µM

## COc1ccc2[nH]c([S@@+]([O-])Cc3ncc(C)c(OC)c3C)nc2c1
Plasmodium
  IC50: 0.29 µM

## N=C(N)N/N=C1C=C/C(=N\NC(N)=S)C=C\1 [AMBAZONE]
Tyrosinase
  IC50: 15 µM
[11]
  inhibition (INH): 20%

## COc1ccc(C2=NC(c3ccc(Cl)cc3)C(c3ccc(Cl)cc3)N2C(=O)N2CCNC(=O)C2)c(OC(C)C)c1 (stereo unspecified)
[1]
  EC50: 36.9 µM
[2]
  CC50: 26.8 µM

## CCOC(=O)n1ccn(C)c1=S [CARBIMAZOLE]
Tyrosinase
  IC50: 186 µM

## OCCOCCN1CCN(C(c2ccccc2)c2ccc(Cl)cc2)CC1 (stereo unspecified) [HYDROXYZINE]
[1]
  EC50: 14.4 µM
[2]
  CC50: > 50 µM

## Cc1cc(=O)[nH]c(=S)[nH]1 [METHYLTHIOURACIL]
Tyrosinase
  IC50: 142 µM

## CCCCc1nc(Cl)c(CO)n1Cc1ccc(-c2ccccc2-c2nnn[nH]2)cc1 [LOSARTAN]
Mus musculus [12]
  fold change (FC): 3.7

## CN(C)CC/C=C1\c2ccccc2CSc2ccccc21 [DOTHIEPIN HYDROCHLORIDE]
[1]
  EC50: 3.4 µM
[2]
  CC50: 28.9 µM

## CC(=O)c1ccc2c(c1)N(CCCN1CCN(CCO)CC1)c1ccccc1S2 [ACETOPHENAZINE]
[1]
  EC50: 11.2 µM
[2]
  CC50: 23.6 µM

## CCN(CC)CCOc1ccc(/C(=C(/Cl)c2ccccc2)c2ccccc2)cc1 [ENCLOMIPHENE CITRATE]
Plasmodium
  IC50: 0.22 µM

## Sc1ncnc2nc[nH]c12 [MERCAPTOPURINE ANHYDROUS]
Tyrosinase
  Ki: 16 µM

## C=C[C@H]1CN2CC[C@H]1C[C@H]2[C@H](O)c1ccnc2ccc(OC)cc12 [QUININE]
Dengue virus
  inhibition (INH): 80%

## COc1ccc2[nH]c([S+]([O-])Cc3ncc(C)c(OC)c3C)nc2c1 (stereo unspecified) [OMEPRAZOLE]
Plasmodium
  IC50: < 1 µM

## CCCc1nc2c(C)cc(-c3nc4ccccc4n3C)cc2n1Cc1ccc(-c2ccccc2C(=O)O)cc1
Plasmodium
  IC50: 0.025 µM

## O=c1cc[nH]c(=S)[nH]1 [THIOURACIL]
Tyrosinase
  IC50: 128 µM

## CN(C)CCCN1c2ccccc2Sc2ccc(Cl)cc21 [CHLORPROMAZINE]
[3]
  EC50: 4.9 µM
SARS-CoV [13]
  EC50: 8.8 µM
Human coronavirus 229E [14]
  EC50: 2.5 µM

## CCN(CC)CCCC(C)Nc1ccnc2cc(Cl)ccc12 (stereo unspecified) [CHLOROQUINE]
[3]
  EC50: 3 µM
SARS-CoV [13]
  EC50: 4.1 µM

## Nc1nc2nc[nH]c2c(=S)[nH]1 [THIOGUANINE]
Tyrosinase
  Ki: 52 µM
B16-F10
  inhibition at 50 µM: 57%

## C=C(c1ccc(C(=O)O)cc1)c1cc2c(cc1C)C(C)(C)CCC2(C)C [BEXAROTENE]
Mus musculus [15]
  Activity: 25%
Mus musculus [16]
  Activity: 25%
Mus musculus [17]
  Activity: 25%
Mus musculus [18]
  Activity: 25%
Mus musculus [19]
  Activity: 30%

## O=C(c1ccc(OCCN2CCCCC2)cc1)c1c(-c2ccc(O)cc2)sc2cc(O)ccc12 [RALOXIFENE HYDROCHLORIDE]
Plasmodium
  IC50: < 0.5 µM

## N=C(N)c1ccc(OCCCCCOc2ccc(C(=N)N)cc2)cc1
Plasmodium
  IC50: < 0.5 µM

## CN1CCC[C@@H]1CCO[C@](C)(c1ccccc1)c1ccc(Cl)cc1 [CLEMASTINE FUMARATE]
Plasmodium
  IC50: 2.2 µM

## CN(C)C(=O)C(CCN1CCC(O)(c2ccc(Cl)cc2)CC1)(c1ccccc1)c1ccccc1 [LOPERAMIDE]
[3]
  EC50: 4.8 µM
SARS-CoV [13]
  EC50: 5.9 µM
Human coronavirus 229E [14]
  EC50: 4 µM

## COc1ccc(-c2nc(-c3cc(C(F)(F)F)cc(C(F)(F)F)c3)n(Cc3ccc(C(N)=O)cc3)c2-c2ccc(OC)cc2)cc1
Plasmodium falciparum
  EC50: 4.5 µM

## OC[C@H]1O[C@@H](n2cnc3c(S)ncnc32)[C@H](O)[C@@H]1O [THIOINOSINE]
Tyrosinase
  Ki: 8 µM
